Experimental data published in patent US10450356B2, “PRAME derived peptides and immunogenic compositions comprising these” (Academisch Ziekenhuis Leiden H.O.D.N. LUMC, priority 2007, dated 2019).
Marks after values point to notes of the source that are not given here.

Molecular target: T1, 20S proteasomes purified from a B-LCL cell line (immunoproteasomes) (Homo sapiens, UniProt P28062+P28065+P40306)
T1 construct: 20S proteasomes were purified from a B-LCL cell line; endogenous in cells; purified after Groettrup et al. 1995
Experiment: In vitro proteasome mediated cleavage analysis
Assay type: biochemical
Design: key to Intact in fragment / Intact Fragment: intact epitope found in digestion fragments: (+), present; (-), not present; key to Processing C-term: generation by proteasome-mediated digestion of fragments containing the correct C-terminus: (++) fragments present for >5%; (+) present for <5%; (-) no fragments containing the C-term. were found
Details: for Processing C-term: generation by proteasome-mediated digestion of fragments containing the correct C-terminus: 1 h digestion; for Intact Fragment: intact epitope found in digestion fragments: after 1 h digestion; for C-term. generation: generation of C-terminus of the epitope after 1 h digestion; for Intact in fragment: intact epitope found in digestion fragments after 1 h digestion
Description: 20S proteasomes were purified from a B-LCL cell line as described by Groettrup et al. (J. Biol. Chem. 270:23808-23815; 1995). This cell type is known to contain immunoproteasomes. High LMP2 and 7 content was confirmed by 2-D immuno-blotting. To assess kinetics, digestions were performed with different incubation periods. Peptides (27 mers, 20 μg) were incubated with 1 μg of purified proteasome at 37° C. for 1 h, 4 h and 24 h in 300 μl proteasome digestion buffer as described (Eggers, et al. 1995. J. Exp. Med. 182:1865). Trifluoroacetic acid was added to stop the digestion and samples were stored at −20° C. before mass spectrometric analysis.
Electrospray ionization mass spectrometry was performed on a hybrid quadrupole time-of-flight mass spectrometer, a Q-TOF (Micromass), equipped with an on-line nanoelectrospray interface with an approximate flow rate of 250 nL/min. Injections were done with a dedicated micro/nano HPLC autosampler, the FAMOS (LC Packings). Digestion solutions were diluted five times in water-methanol-acetic acid (95:5:1, v/v/v), and trapped on the precolumn (MCA-300-05-C8; LC Packings) in water-methanol-acetic acid (95:5:1, v/v/v). Washing of the precolumn was done for 3 min to remove the buffers present in the digests. Subsequently, the trapped analytes were eluted with a steep gradient going from 70% B to 90% B in 10 min, with a flow of 250 nl/min (A: water-methanol-acetic acid (95:5:1, v/v/v); B: water-methanol-acetic acid (10:90:1, v/v/v)). This low elution rate allows for a few additional MS/MS experiments if necessary during the same elution. Mass spectra were recorded from mass 50-2000 Da every second. The resolution allows direct determination of the monoisotopic mass, also from multiple charged ions. The peaks in the mass spectrum were searched in the digested precursor peptide using the Biolynx/proteins software (Micromass). The intensity of the peaks in the mass spectra was used to establish the relative amounts of peptides generated by proteasome digestion.

Compound | Processing C-term: generation by proteasome-mediated digestion of fragments containing the correct C-terminus | Intact Fragment: intact epitope found in digestion fragments | C-term. generation | Intact in fragment
CC(C)C[C@H](NC(=O)[C@@H](NC(=O)[C@@H]1CCCN1C(=O)[C@H](CC(C)C)NC(=O)[C@H](CCCCN)NC(=O)[C@H](Cc1c[nH]c2ccccc12)NC(=O)[C@@H](NC(=O)[C@@H](N)CS)[C@@H](C)O)[C@@H](C)O)C(=O)N[C@@H](C)C(=O)N[C@@H](CCCCN)C(=O)O | - | - |  | 
CC(C)C[C@H](NC(=O)[C@@H](NC(=O)[C@@H]1CCCN1C(=O)[C@H](CC(C)C)NC(=O)[C@H](CCCCN)NC(=O)[C@H](Cc1c[nH]c2ccccc12)NC(=O)[C@@H](NC(=O)[C@@H](N)CS)[C@@H](C)O)[C@@H](C)O)C(=O)N[C@@H](C)C(=O)O | - | - |  | 
CC[C@H](C)[C@H](N)C(=O)N[C@@H](Cc1ccccc1)C(=O)N[C@@H](C)C(=O)N[C@@H](CCSC)C(=O)N1CCC[C@H]1C(=O)N[C@@H](CCSC)C(=O)N[C@@H](CCC(N)=O)C(=O)N[C@@H](CC(=O)O)C(=O)N[C@H](C(=O)O)[C@@H](C)CC | - | - |  | 
CC[C@H](C)[C@H](NC(=O)[C@H](CCSC)NC(=O)[C@H](CCC(N)=O)NC(=O)CNC(=O)[C@H](CC(C)C)NC(=O)[C@H](Cc1ccc(O)cc1)NC(=O)[C@@H]1CCCN1C(=O)[C@H](CO)NC(=O)[C@H](Cc1ccccc1)NC(=O)[C@@H](N)CCCCN)C(=O)O | - | - |  | 
CC[C@H](C)[C@H](NC(=O)[C@H](CC(=O)O)NC(=O)[C@H](CCC(N)=O)NC(=O)[C@H](CCSC)NC(=O)[C@@H]1CCCN1C(=O)[C@H](CCSC)NC(=O)[C@H](C)NC(=O)[C@H](Cc1ccccc1)NC(=O)[C@@H](NC(=O)[C@@H](N)CCCCN)[C@@H](C)CC)C(=O)O | - | - |  | 
CC(C)C[C@H](NC(=O)[C@H](C)NC(=O)[C@H](CCC(N)=O)NC(=O)[C@H](CC(C)C)NC(=O)[C@H](CS)NC(=O)[C@H](CCC(N)=O)NC(=O)[C@H](CC(C)C)NC(=O)[C@H](CO)NC(=O)[C@@H](N)CC(C)C)C(=O)N[C@@H](Cc1ccc(O)cc1)C(=O)O | - | - |  | 
CC(C)C[C@H](NC(=O)[C@H](Cc1ccccc1)NC(=O)[C@H](Cc1ccccc1)NC(=O)[C@H](CC(C)C)NC(=O)[C@H](CO)NC(=O)[C@H](CC(=O)O)NC(=O)[C@@H](NC(=O)[C@H](Cc1ccc(O)cc1)NC(=O)[C@@H](N)CC(C)C)C(C)C)C(=O)O | ++ ((++) fragments present for >5%) | + | ++ (abundant (++) present for >5%) | +
CC(C)C[C@H](NC(=O)[C@H](CC(C)C)NC(=O)[C@H](CC(C)C)NC(=O)[C@H](CCCNC(=N)N)NC(=O)[C@H](CCCNC(=N)N)NC(=O)[C@H](CC(C)C)NC(=O)[C@@H](N)CC(N)=O)C(=O)N[C@@H](CO)C(=O)N[C@@H](Cc1c[nH]cn1)C(=O)O | - | - |  | 
CC(C)C[C@H](NC(=O)[C@@H](NC(=O)[C@@H]1CCCN1)[C@@H](C)O)C(=O)N[C@@H](C)C(=O)N[C@@H](CCCCN)C(=O)N[C@@H](Cc1ccccc1)C(=O)N[C@@H](CO)C(=O)N1CCC[C@H]1C(=O)N[C@@H](Cc1ccc(O)cc1)C(=O)O | - | - |  | 
CC[C@H](C)[C@H](NC(=O)[C@H](CCSC)NC(=O)[C@H](CCC(N)=O)NC(=O)CNC(=O)[C@H](CC(C)C)NC(=O)[C@H](Cc1ccc(O)cc1)NC(=O)[C@@H]1CCCN1)C(=O)N[C@@H](CC(N)=O)C(=O)N[C@@H](CC(C)C)C(=O)O | +^(k) ((+) present for <5%) | + |  | +
CC(C)C[C@H](NC(=O)[C@H](CO)NC(=O)[C@H](CC(C)C)NC(=O)[C@H](Cc1ccccc1)NC(=O)[C@H](CCC(N)=O)NC(=O)[C@H](CO)NC(=O)[C@@H](NC(=O)[C@H](Cc1ccccc1)NC(=O)[C@@H](N)CCC(N)=O)[C@@H](C)O)C(=O)O | ++ ((++) fragments present for >5%) |  | ++ (abundant (++) present for >5%) | 
CC[C@H](C)[C@H](NC(=O)[C@H](Cc1ccc(O)cc1)NC(=O)[C@@H](N)CCC(N)=O)C(=O)N[C@@H](C)C(=O)N[C@@H](CCC(N)=O)C(=O)N[C@@H](Cc1ccccc1)C(=O)N[C@H](C(=O)N[C@@H](CO)C(=O)N[C@@H](CCC(N)=O)C(=O)N[C@@H](Cc1ccccc1)C(=O)O)[C@@H](C)O | ++ ((++) fragments present for >5%) | + | ++ (abundant (++) present for >5%) | +
CC[C@H](C)[C@H](NC(=O)[C@H](CO)NC(=O)CNC(=O)[C@H](Cc1c[nH]c2ccccc12)NC(=O)[C@H](CC(C)C)NC(=O)[C@@H](N)CCCNC(=N)N)C(=O)N[C@@H](CCC(N)=O)C(=O)N[C@@H](CO)C(=O)N[C@@H](CCCNC(=N)N)C(=O)N[C@@H](Cc1ccc(O)cc1)C(=O)O | - | - |  | 
CC(C)C[C@H](NC(=O)[C@H](C)NC(=O)[C@H](CCC(N)=O)NC(=O)[C@H](CC(C)C)NC(=O)[C@H](CS)NC(=O)[C@H](CCC(N)=O)NC(=O)[C@H](CC(C)C)NC(=O)[C@@H](N)CO)C(=O)N[C@@H](Cc1ccc(O)cc1)C(=O)N[C@H](C(=O)O)C(C)C | + ((+) present for <5%) | - |  | 
CC(C)C[C@H](NC(=O)[C@H](Cc1ccc(O)cc1)NC(=O)[C@@H]1CCCN1C(=O)[C@H](CO)NC(=O)[C@H](Cc1ccccc1)NC(=O)[C@H](CCCCN)NC(=O)[C@H](C)NC(=O)[C@H](CC(C)C)NC(=O)[C@@H](N)[C@@H](C)O)C(=O)O | + ((+) present for <5%) | + | + (low abundant (+) present for <5%) | +
CC[C@H](C)[C@H](NC(=O)[C@@H](N)Cc1ccc(O)cc1)C(=O)N[C@@H](C)C(=O)N[C@@H](CCC(N)=O)C(=O)N[C@@H](Cc1ccccc1)C(=O)N[C@H](C(=O)N[C@@H](CO)C(=O)N[C@@H](CCC(N)=O)C(=O)N[C@@H](Cc1ccccc1)C(=O)N[C@@H](CC(C)C)C(=O)O)[C@@H](C)O | ++ ((++) fragments present for >5%) | + | ++ (abundant (++) present for >5%) | +
CC[C@H](C)[C@H](NC(=O)[C@H](CCSC)NC(=O)[C@H](CCC(N)=O)NC(=O)CNC(=O)[C@H](CC(C)C)NC(=O)[C@@H](N)Cc1ccc(O)cc1)C(=O)N[C@@H](CC(N)=O)C(=O)N[C@@H](CC(C)C)C(=O)N[C@@H](CCCNC(=N)N)C(=O)N[C@@H](CCCNC(=N)N)C(=O)O | - | - |  | 
CC(C)C[C@H](NC(=O)[C@H](Cc1ccccc1)NC(=O)[C@H](Cc1ccccc1)NC(=O)[C@H](CC(C)C)NC(=O)[C@H](CO)NC(=O)[C@H](CC(=O)O)NC(=O)[C@@H](NC(=O)[C@@H](N)Cc1ccc(O)cc1)C(C)C)C(=O)N[C@@H](CCCNC(=N)N)C(=O)O | + ((+) present for <5%) | - |  | 
